Experimental data from patent publication US9024018B2, “3-substituted-8-substituted-3H-imidazo[5,1-d][1,2,3,5]tetrazin-4-one compounds and their use” (Pharminox Limited, priority 2009, dated 2015).

Legend:
Assay type in all cases: cell-based
SNB19V = assay: MTT assay for 7-day toxicity, SNB19V glioma cells (vector control, MGMT-); details: Glioma cell, 168 h, 7 day MTT assay, glioma line SNB19V
Description: (§1) The cell culture techniques were carried out in a Class II microbiological safety cabinet which was swabbed with 70% IMS in distilled water before each use. Glioma cells were routinely cultured in Costar tissue culture flasks in RPMI 1640 liquid medium (containing 0.3 g/L L-glutamine and 2 g/L sodium bicarbonate) supplemented with 10% heat inactivated FBS (55-59° C.) for 1 hour to denature complement proteins which would otherwise evoke a cellular immune response resulting in cell lysis, 1% non-essential amino acids, 50 μg/mL gentamicin and 400 μg/mL G418 (vector selection reagent). Colorectal and melanoma cells were maintained in RPMI 1640 supplemented with 10% FBS. MRC-5 cells were cultured in EMEM+10% FBS, 1% pen/strep, 1% non-essential amino acids, 1% HEPES (1M) and 1% sodium bicarbonate.
(§2) Cells were grown at 37° C. in a humidified incubator in an atmosphere comprising 95% air/5% CO2. Cells were sub-cultured when growth exceeded approximately 80% confluence, normally twice weekly. The medium was aspirated from the flask and approximately 0.8 mL trypsin-EDTA 1× solution added. The cells were re-incubated at 37° C. until they had visibly detached from the flask. The cells were re-suspended in 5 mL medium and 0.5-1 mL was transferred to a new flask (25 cm^2) with 7 mL culture medium. The cells were further incubated at 37° C. To minimize phenotypic drift, cells were disposed of once they had been subcultured 30 times. New batches of cells were thawed rapidly in 37° C. water bath once taken from liquid nitrogen storage and re-suspended in 10 mL of culture medium in a 25 cm^2 flask. Cells were passaged twice to allow normal growth to resume prior to use in experiments.
(§3) Most test compounds, including temozolomide, were prepared as 100 mM stock solutions in DMSO and stored at −20° C. for not more than 6 months.
(§4) MTT Assay for 7-Day Toxicity Assay
(§5) This assay was first described in Mosmann, T., 1983, “Rapid colorimetric assay for cellular growth and survival: Application to proliferation and cytotoxicity assays”, Journal of Immunological Methods, Vol. 65, Nos. 1-2, pp. 55-63.
(§6) Glioma cell lines, SNB19 and U373, both stably transfected with MGMT (i.e., SNB19M and U373M) or their respective vector controls (i.e., SNB19V and U373V); colorectal carcinoma cell lines, HCT116, HT29, and DLD1; melanoma cell line, SKMEL-28; breast cell line, MCF-7; and normal human fetal lung fibroblast cell line, MRC-5; were used at 60-80% confluence, during the logarithmic phase of growth.
(§7) Following harvesting with trypsin/EDTA, cells in suspension were gently syringed through a 23 gauge needle to obtain a near-single cell suspension. Cells were then seeded into 96-well plates at the desired density in 180 μL culture medium if only one test compound was to be added, or in 160 μL if two test compounds were to be added in combination. Cells were allowed to attach overnight by incubation at 37° C. in 95% air/5% CO2. For the 7 day assay, the cell seeding densities for the different cell lines were as follows: SNB19V, SNB19M: 650 cells/well; U373V, U373M: 650 cells/well; SNB19VR, U373VR: 650 cells/well; HCT116, DLD-1, SKMEL-28, MRC-5, MCF-7: 400 cells/well.
(§8) The two peripheral lanes of each plate were used as blank wells (cell free) and filled with 200 μL of medium in order to minimise medium evaporation from the plate. A separate time zero (T0) plate was set up alongside other plates. Serial dilutions in tissue culture medium of a 100 mM stock of test compound were prepared immediately before each assay to ten times the final concentrations required. 20 μL was added to each well (200 μL total media per well) to achieve final concentrations of 0.5 μM, 1 μM, 5 μM, 10 μM, 50 μM, 100 μM, 500 μM, and 1000 μM. A minimum of four wells received the same test compound concentration. To control wells, including those in the T0 plate, 20 μL of medium was added. […]

SNB19M = assay: MTT assay for 7-day toxicity, SNB19M glioma cells (stably transfected with MGMT, MGMT+); details: Glioma cell, 168 h, 7 day MTT assay, glioma line SNB19M
Description: as §1, §2, §3, §4, §5, §6, §7, §8

U373M = assay: MTT assay for 7-day toxicity, U373M glioma cells (stably transfected with MGMT, MGMT+); details: 7 day MTT assay, glioma line U373M
Description: as §1, §2, §3, §4, §5, §6, §7, §8

U373V = assay: MTT assay for 7-day toxicity, U373V glioma cells (vector control, MGMT-); details: Glioma cell, 168 h, 7 day MTT assay, glioma line U373V
Description: as §1, §2, §3, §4, §5, §6, §7, §8

Row | Structure (SMILES) | GI50 (SNB19V) [µM] | GI50 (SNB19M) [µM] | GI50 (U373M; Glioma cell, 168 h) [µM] | GI50 (U373V) [µM] | GI50 (U373M) [µM]
1 | C#CCn1nnc2c(-c3nc4ccccc4s3)ncn2c1=O [WW-059, 8-(Benzo[d]thiazol-2-yl)-3-(prop-2-ynyl)imidazo[5,1-d][1,2,3, 5]tetrazin-4(3H)-one] | < 45 | < 70 | – | – | –
2 | C#CCn1nnc2c(-c3nc(-c4cccs4)cn3C)ncn2c1=O [WW-053, 8-(1-Methyl-4-(thiophen-2-yl)-1H-imidazol-2-yl)-3-(prop-2-ynyl)imidazo[5,1-d][1,2,3,5]tetrazin-4(3H)-one] | < 45 | < 70 | – | – | –
3 | Cn1nnc2c(-c3nc(-c4ccncc4)cs3)ncn2c1=O [WW-013] | – | < 70 | < 60 | < 75 | –
4 | CSCn1nnc2c(-c3nc(-c4ccsc4)cs3)ncn2c1=O [WW-035, 3-(methylthiomethyl)-8-(4-(thiophen-3-yl)thiazol-2-1/1)imidazo[5,1-d][1,2,3,5]tetrazin-4(3H)-one] | – | < 70 | < 60 | < 75 | –
5 | COCn1nnc2c(-c3nc4ccccc4s3)ncn2c1=O [WW-060, 8-(Benzo[d]thiazol-2-yl)-3-(methoxymethyl)imidazo[5,1-d][1,2,3,5]tetrazin-4(3H)-one] | < 45 | < 70 | – | – | –
6 | C[S+]([O-])Cn1nnc2c(-c3nc4ccccc4s3)ncn2c1=O (centres unmarked) [WW-061, 8-(Benzo[d]thiazol-2-yl)-3-(methylsulfinylmethyl)imidazo[5,1-d][1,2,3,5]tetrazin-4(3H)-one] | < 45 | < 70 | – | – | –
7 | COCn1nnc2c(-c3nc(-c4ccncc4)cs3)ncn2c1=O [WW-019, 3-(Methoxymethyl)-8-(4-(pyridin-4-yl)thiazol-2-yl)imidazo[5,1-d][1,2,3,5]tetrazin-4(3H)-one] | < 45 | < 70 | – | – | –
8 | Cn1nnc2c(-c3nc4ccccc4o3)ncn2c1=O [WW-054, 8-(Benzo[d]oxazol-2-yl)-3-methylimidazo[5,1-d][1,2,3,5]tetrazin-4(3H)-one] | < 45 | – | – | < 75 | –
9 | Cn1nnc2c(-c3nnc(Nc4ccccc4)o3)ncn2c1=O [WW-044, 3-Methyl-8-(5-(phenylamino)-1,3,4-oxadiazol-2-yl)imidazo[5,1-d][1,2,3,5]tetrazin-4(3H)-one] | – | – | – | < 75 | –
10 | Cn1nnc2c(-c3nnc(-c4ccccc4)o3)ncn2c1=O [WW-041, 3-Methyl-8-(5-phenyl-1,3,4-oxadiazol-2-yl)imidazo[5,1-d][1,2,3,5]tetrazin-4(3H)-one] | < 45 | – | – | < 75 | –
11 | COCn1nnc2c(-c3nnc(NCc4ccccc4)o3)ncn2c1=O [WW-046, 8-(5-(Benzylamino)-1,3,4-oxadiazol-2-yl)-3-(methoxymethyl)imidazo[5,1-d][1,2,3,5]tetrazin-4(3H)-one] | – | < 70 | < 60 | < 75 | –
12 | COCn1nnc2c(-c3nc(-c4cccs4)cs3)ncn2c1=O [WW-018, 3-(Methoxymethyl)-8-(4-(thiophen-2-yl)thiazol-2-yl)imidazo[5,1-d][1,2,3, 5]tetrazin-4(3H)-one] | < 45 | < 70 | – | – | –
13 | CSCn1nnc2c(-c3nc(-c4cccs4)cs3)ncn2c1=O [WW-034, 3-(methylthiomethyl)-8-(4-(thiophen-2-yl)thiazol-2-yl)imidazo[5,1-d][1,2,3,5]tetrazin-4(3H)-one] | – | < 70 | < 60 | < 75 | –
14 | CNc1nnc(-c2ncn3c(=O)n(C)nnc23)o1 [WW-045, 3-Methyl-8-(5-(methylamino)-1,3,4-oxadiazol-2-yl)imidazo[5,1-d][1,2,3,5]tetrazin-4(3H)-one] | < 45 | – | – | < 75 | –
15 | COCn1nnc2c(-c3nc(-c4ccsc4)cs3)ncn2c1=O [WW-017] | < 45 | < 70 | – | – | –
16 | COCn1nnc2c(-c3nc(-c4nccs4)cs3)ncn2c1=O [WW-015, 8-(2,4′-Bithiazol-2′-yl)-3-(methoxymethyl)imidazo[5,1-d][1,2,3,5]tetrazin-4(3H)-one] | – | < 70 | < 60 | < 75 | –
17 | C[S+]([O-])Cn1nnc2c(-c3nc4ccccc4o3)ncn2c1=O (centres unmarked) [WW-056, 8-(Benzo[d]oxazol-2-yl)-3-(methylsulfinylmethyl)imidazo[5,1-d][1,2,3,5]tetrazin-4(3H)-one] | < 45 | < 70 | – | – | –
18 | COCn1nnc2c(-c3nc4ccccc4[nH]3)ncn2c1=O [WW-064, 8-(1H-Benzo[d]imidazol-2-yl)-3-(methoxymethyl)imidazo[5,1-d][1,2,3,5]tetrazin-4(3H)-one] | < 45 | < 70 | – | – | –
19 | CSCn1nnc2c(-c3nc(-c4ccccc4)cs3)ncn2c1=O [WW-030, 3-(Methylthiomethyl)-8-(4-phenylthiazol-2-yl)imidazo[5,1-d][1,2,3,5]tetrazin-4(3H)-one] | – | < 70 | < 60 | < 75 | –
20 | COCn1nnc2c(-c3nc4ccccc4o3)ncn2c1=O [WW-057] | – | < 70 | – | – | –
21 | Cn1nnc2c(-c3nc(-c4cccs4)cs3)ncn2c1=O [WW-011, 3-Methyl-8-(4-(thiophen-2-yl)thiazol-2-yl)imidazo[5,1-d][1,2,3,5]tetrazin-4(3H)-one] | < 45 | < 70 | – | < 75 | –
22 | C#CCn1nnc2c(-c3nc(-c4ccc(Br)cc4)cs3)ncn2c1=O [WW-021] | – | < 70 | < 60 | < 75 | –
23 | Cn1nnc2c(C(=O)NO)ncn2c1=O [RR-001, N-Hydroxy-3-methyl-4-oxo-3,4-dihydroimidazo[5,1-d][1,2,3,5]tetrazine-8-carboxamide] | 41 | 87.1 | – | – | –
24 | C#CCn1nnc2c(-c3nc(C(C)(C)C)cs3)ncn2c1=O [WW-020, 8-(4-tert-Butylthiazol-2-yl)-3-(prop-2-ynyl)imidazo[5,1-d][1,2,3,5]tetrazin-4(3H)-one] | – | < 70 | – | – | –
25 | C#CCn1nnc2c(-c3nc4ccccc4n3C)ncn2c1=O [WW-065, 8-(1-Methyl-1H-benzo[d]imidazol-2-yl)-3-(prop-2-ynyl)imidazo[5,1-d][1,2,3,5]tetrazin-4(3H)-one] | < 45 | < 70 | – | – | –
26 | Cn1nnc2c(-c3nc(-c4ccc(Br)cc4)cs3)ncn2c1=O [WW-022, 8-(4-(4-Bromophenyl)thiazol-2-yl)-3-methylimidazo[5,1-d][1,2,3,5]tetrazin-4(3H)-one] | < 45 | < 70 | – | – | –
27 | Cn1nnc2c(-c3nc(-c4nccs4)cs3)ncn2c1=O [WW-010, 8-(2,4′-Bithiazol-2′-yl)-3-methylimidazo[5,1-d][1,2,3,5]tetrazin-4(3H)-one] | < 45 | < 70 | – | – | –
28 | C[S+]([O-])Cn1nnc2c(-c3nnc(-c4ccccc4)o3)ncn2c1=O (centres unmarked) [WW-043, 3-(Methylsulfinylmethyl)-8-(5-phenyl-1,3,4-oxadiazol-2-yl)imidazo[5,1-d][1,2,3,5]tetrazin-4(3H)-one] | < 45 | < 70 | – | – | –
29 | COCn1nnc2c(-c3nc(-c4ccc(S(C)(=O)=O)cc4)cs3)ncn2c1=O [WW-027, 3-(Methoxymethyl)-8-(4-(4-(methylsulfonyl)phenyl)thiazol-2-yl)imidazo[5,1-d][1,2,3,5]tetrazin-4(3H)-one] | – | – | < 60 | – | 33.1
30 | Cn1nnc2c(-c3nc4ccccc4n3C)ncn2c1=O [WW-066, 3-Methyl-8-(1-methyl-1H-benzo[d]imidazol-2-yl)imidazo[5,1-d][1,2,3,5]tetrazin-4(3H)-one] | < 45 | < 70 | – | – | –
